{"source": "ChEMBL document CHEMBL1157049", "about": "“Synthesis and study of some new 1,3-isoindoledione derivatives as potential antibacterial agents” (2010)", "key": {"[1]": {"system": "Escherichia coli", "experiment": "Antimicrobial activity Escherichia coli at 2 mg/mL after 24 hrs by agar diffusion technique", "format": "functional", "conditions": "read-out: DIZ"}, "[2]": {"system": "Bacillus thuringiensis", "experiment": "Antimicrobial activity Bacillus thuringiensis at 2 mg/mL after 24 hrs by agar diffusion technique", "format": "functional", "conditions": "read-out: DIZ"}}}
{"molecule": "O=C1C2C3c4ccccc4C(c4ccccc43)C2C(=O)N1C(CO)(CO)CO", "note": "(stereo not drawn)", "values": [{"measurement": "zone of inhibition at 2000 µg/mL", "setting": "[1]", "result": 14, "unit": "mm"}, {"measurement": "zone of inhibition at 2000 µg/mL", "setting": "[2]", "result": 15, "unit": "mm"}]}
{"molecule": "O=C1/C(=N\\c2ccccc2N2C(=O)C3C4c5ccccc5C(c5ccccc54)C3C2=O)C=C(Nc2ccccc2N2C(=O)C3C4c5ccccc5C(c5ccccc54)C3C2=O)c2ccccc21", "note": "(stereo not drawn)", "values": [{"measurement": "zone of inhibition at 2000 µg/mL", "setting": "[1]", "result": 17, "unit": "mm"}, {"measurement": "zone of inhibition at 2000 µg/mL", "setting": "[2]", "result": 17, "unit": "mm"}]}
{"molecule": "O=C(c1ccc(N2C(=O)C3C4c5ccccc5C(c5ccccc54)C3C2=O)cc1)c1nc2ccccc2[nH]1", "note": "(stereo not drawn)", "values": [{"measurement": "zone of inhibition at 2000 µg/mL", "setting": "[1]", "result": 23, "unit": "mm"}, {"measurement": "zone of inhibition at 2000 µg/mL", "setting": "[2]", "result": 20, "unit": "mm"}]}
{"molecule": "Nc1ccccc1N1C(=O)C2C3c4ccccc4C(c4ccccc43)C2C1=O", "note": "(stereo not drawn)", "values": [{"measurement": "zone of inhibition at 2000 µg/mL", "setting": "[1]", "result": 12, "unit": "mm"}, {"measurement": "zone of inhibition at 2000 µg/mL", "setting": "[2]", "result": 17, "unit": "mm"}]}
{"molecule": "O=C1C2C3c4ccccc4C(c4ccccc43)C2C(=O)N1c1ccc(/N=N/c2ccccc2)cc1", "note": "(stereo not drawn)", "values": [{"measurement": "zone of inhibition at 2000 µg/mL", "setting": "[1]", "result": 14, "unit": "mm"}, {"measurement": "zone of inhibition at 2000 µg/mL", "setting": "[2]", "result": 13, "unit": "mm"}]}
{"molecule": "O=C(c1ccc(N2C(=O)C3C4c5ccccc5C(c5ccccc54)C3C2=O)cc1)C(Br)Br", "note": "(stereo not drawn)", "values": [{"measurement": "zone of inhibition at 2000 µg/mL", "setting": "[1]", "result": 14, "unit": "mm"}, {"measurement": "zone of inhibition at 2000 µg/mL", "setting": "[2]", "result": 17, "unit": "mm"}]}
{"molecule": "O=C1C2C3c4ccccc4C(c4ccccc43)C2C(=O)N1c1ccccc1O", "note": "(stereo not drawn)", "values": [{"measurement": "zone of inhibition at 2000 µg/mL", "setting": "[1]", "result": 16, "unit": "mm"}, {"measurement": "zone of inhibition at 2000 µg/mL", "setting": "[2]", "result": 17, "unit": "mm"}]}
{"molecule": "COC(=O)n1c(C2C3c4ccccc4C(c4ccccc43)C2C(=O)O)nc2ccccc21", "note": "(stereo not drawn)", "values": [{"measurement": "zone of inhibition at 2000 µg/mL", "setting": "[1]", "result": 13, "unit": "mm"}, {"measurement": "zone of inhibition at 2000 µg/mL", "setting": "[2]", "result": 17, "unit": "mm"}]}
{"molecule": "Cc1ccc(S(=O)(=O)Oc2ccccc2N2C(=O)C3C4c5ccccc5C(c5ccccc54)C3C2=O)cc1", "note": "(stereo not drawn)", "values": [{"measurement": "zone of inhibition at 2000 µg/mL", "setting": "[1]", "result": 18, "unit": "mm"}, {"measurement": "zone of inhibition at 2000 µg/mL", "setting": "[2]", "result": 15, "unit": "mm"}]}
{"molecule": "O=C1C2C3c4ccccc4C(c4ccccc43)C2C(=O)N1c1ccccc1S", "note": "(stereo not drawn)", "values": [{"measurement": "zone of inhibition at 2000 µg/mL", "setting": "[1]", "result": 16, "unit": "mm"}, {"measurement": "zone of inhibition at 2000 µg/mL", "setting": "[2]", "result": 18, "unit": "mm"}]}
{"molecule": "CC(=O)c1ccc(N2C(=O)C3C4c5ccccc5C(c5ccccc54)C3C2=O)cc1", "note": "(stereo not drawn)", "values": [{"measurement": "zone of inhibition at 2000 µg/mL", "setting": "[1]", "result": 12, "unit": "mm"}, {"measurement": "zone of inhibition at 2000 µg/mL", "setting": "[2]", "result": 15, "unit": "mm"}]}
{"molecule": "O=C1C2C3c4ccccc4C(c4ccccc43)C2C(=O)N1c1nc[nH]n1", "note": "(stereo not drawn)", "values": [{"measurement": "zone of inhibition at 2000 µg/mL", "setting": "[1]", "result": 15, "unit": "mm"}, {"measurement": "zone of inhibition at 2000 µg/mL", "setting": "[2]", "result": 17, "unit": "mm"}]}
{"molecule": "CC(=O)Nc1ccccc1N1C(=O)C2C3c4ccccc4C(c4ccccc43)C2C1=O", "note": "(stereo not drawn)", "values": [{"measurement": "zone of inhibition at 2000 µg/mL", "setting": "[1]", "result": 16, "unit": "mm"}, {"measurement": "zone of inhibition at 2000 µg/mL", "setting": "[2]", "result": 18, "unit": "mm"}]}
{"molecule": "Cc1ccc(/N=N/c2ccc(N3C(=O)C4C5c6ccccc6C(c6ccccc65)C4C3=O)cc2)cc1", "note": "(stereo not drawn)", "values": [{"measurement": "zone of inhibition at 2000 µg/mL", "setting": "[1]", "result": 14, "unit": "mm"}, {"measurement": "zone of inhibition at 2000 µg/mL", "setting": "[2]", "result": 11, "unit": "mm"}]}
{"molecule": "CC1(C)S[C@@H]2[C@H](NC(=O)[C@H](N)c3ccccc3)C(=O)N2[C@H]1C(=O)O", "note": "[AMPICILLIN]", "values": [{"measurement": "zone of inhibition at 2000 µg/mL", "setting": "[1]", "result": 19, "unit": "mm"}, {"measurement": "zone of inhibition at 2000 µg/mL", "setting": "[2]", "result": 18, "unit": "mm"}]}
{"molecule": "Cc1ccc2nc(N3C(=O)C4C5c6ccccc6C(c6ccccc65)C4C3=O)sc2c1", "note": "(stereo not drawn)", "values": [{"measurement": "zone of inhibition at 2000 µg/mL", "setting": "[1]", "result": 29, "unit": "mm"}, {"measurement": "zone of inhibition at 2000 µg/mL", "setting": "[2]", "result": 26, "unit": "mm"}]}
{"molecule": "O=C1C2C3c4ccccc4C(c4ccccc43)C2C(=O)N1c1ccccc1SSc1ccccc1N1C(=O)C2C3c4ccccc4C(c4ccccc43)C2C1=O", "note": "(stereo not drawn)", "values": [{"measurement": "zone of inhibition at 2000 µg/mL", "setting": "[1]", "result": 17, "unit": "mm"}, {"measurement": "zone of inhibition at 2000 µg/mL", "setting": "[2]", "result": 17, "unit": "mm"}]}
{"molecule": "O=C(N[C@H](CO)[C@H](O)c1ccc([N+](=O)[O-])cc1)C(Cl)Cl", "note": "[CHLORAMPHENICOL]", "values": [{"measurement": "zone of inhibition at 2000 µg/mL", "setting": "[1]", "result": 20, "unit": "mm"}, {"measurement": "zone of inhibition at 2000 µg/mL", "setting": "[2]", "result": 23, "unit": "mm"}]}
{"molecule": "CCOC(=O)c1c(N2C(=O)C3C4c5ccccc5C(c5ccccc54)C3C2=O)sc2c1CCCC2", "note": "(stereo not drawn)", "values": [{"measurement": "zone of inhibition at 2000 µg/mL", "setting": "[1]", "result": 14, "unit": "mm"}, {"measurement": "zone of inhibition at 2000 µg/mL", "setting": "[2]", "result": 15, "unit": "mm"}]}
